Reference: US8962641B2, “Pyrimidine-substituted pyrrolidine derivatives, pharmaceutical compositions and uses thereof” (Boehringer Ingelheim International GmbH, priority 2013, dated 2015)

What follows are compounds tested against human ACC2 (Homo sapiens (Human), UniProt O00763) (assay: ACC2 assay (spectrophotometric 384 well assay, NADH-linked kinetic method)). Settings: hACC2 construct lacking 128 N-terminal amino acids; coupled lactate dehydrogenase/pyruvate kinase reaction, 340 nm, 25° C.
Assay type: biochemical
Procedure: Spectrophotometric 384 Well Assay
Malonyl CoA formation by acetyl CoA carboxylases is stoichometrically linked to the consumption of ATP. ACC2 activity is measured in a NADH-linked kinetic method measuring ADP generated during the ACC reaction using a coupled lactate dehydrogenase/pyruvate kinase reaction.
The protein is then expressed in insect cells using a baculoviral expression system. Protein purification is performed by anion exchange.
All compounds are dissolved in dimethyl sulfoxide (DMSO) to a concentration of 10 mM.
The enzymatic reaction is then started by addition of a mixture of NADH, acetyl Coenzyme A (both 200 μM f.c.) and ATP (500 uM f.c.). The decrease of the optical density (slope S) is then determined at 25° C. at a wavelength of 340 nm over 15 minutes in a spectrophotometric reader.
Each assay microtiter plate contains wells with vehicle instead of compound as controls for the non-inhibited enzyme (100% CTL; ‘HIGH’) and wells without acetyl-CoA as controls for non-specific NADH degradation (0% CTL; ‘LOW’).

human ACC2, sequence (O00763 129-2458): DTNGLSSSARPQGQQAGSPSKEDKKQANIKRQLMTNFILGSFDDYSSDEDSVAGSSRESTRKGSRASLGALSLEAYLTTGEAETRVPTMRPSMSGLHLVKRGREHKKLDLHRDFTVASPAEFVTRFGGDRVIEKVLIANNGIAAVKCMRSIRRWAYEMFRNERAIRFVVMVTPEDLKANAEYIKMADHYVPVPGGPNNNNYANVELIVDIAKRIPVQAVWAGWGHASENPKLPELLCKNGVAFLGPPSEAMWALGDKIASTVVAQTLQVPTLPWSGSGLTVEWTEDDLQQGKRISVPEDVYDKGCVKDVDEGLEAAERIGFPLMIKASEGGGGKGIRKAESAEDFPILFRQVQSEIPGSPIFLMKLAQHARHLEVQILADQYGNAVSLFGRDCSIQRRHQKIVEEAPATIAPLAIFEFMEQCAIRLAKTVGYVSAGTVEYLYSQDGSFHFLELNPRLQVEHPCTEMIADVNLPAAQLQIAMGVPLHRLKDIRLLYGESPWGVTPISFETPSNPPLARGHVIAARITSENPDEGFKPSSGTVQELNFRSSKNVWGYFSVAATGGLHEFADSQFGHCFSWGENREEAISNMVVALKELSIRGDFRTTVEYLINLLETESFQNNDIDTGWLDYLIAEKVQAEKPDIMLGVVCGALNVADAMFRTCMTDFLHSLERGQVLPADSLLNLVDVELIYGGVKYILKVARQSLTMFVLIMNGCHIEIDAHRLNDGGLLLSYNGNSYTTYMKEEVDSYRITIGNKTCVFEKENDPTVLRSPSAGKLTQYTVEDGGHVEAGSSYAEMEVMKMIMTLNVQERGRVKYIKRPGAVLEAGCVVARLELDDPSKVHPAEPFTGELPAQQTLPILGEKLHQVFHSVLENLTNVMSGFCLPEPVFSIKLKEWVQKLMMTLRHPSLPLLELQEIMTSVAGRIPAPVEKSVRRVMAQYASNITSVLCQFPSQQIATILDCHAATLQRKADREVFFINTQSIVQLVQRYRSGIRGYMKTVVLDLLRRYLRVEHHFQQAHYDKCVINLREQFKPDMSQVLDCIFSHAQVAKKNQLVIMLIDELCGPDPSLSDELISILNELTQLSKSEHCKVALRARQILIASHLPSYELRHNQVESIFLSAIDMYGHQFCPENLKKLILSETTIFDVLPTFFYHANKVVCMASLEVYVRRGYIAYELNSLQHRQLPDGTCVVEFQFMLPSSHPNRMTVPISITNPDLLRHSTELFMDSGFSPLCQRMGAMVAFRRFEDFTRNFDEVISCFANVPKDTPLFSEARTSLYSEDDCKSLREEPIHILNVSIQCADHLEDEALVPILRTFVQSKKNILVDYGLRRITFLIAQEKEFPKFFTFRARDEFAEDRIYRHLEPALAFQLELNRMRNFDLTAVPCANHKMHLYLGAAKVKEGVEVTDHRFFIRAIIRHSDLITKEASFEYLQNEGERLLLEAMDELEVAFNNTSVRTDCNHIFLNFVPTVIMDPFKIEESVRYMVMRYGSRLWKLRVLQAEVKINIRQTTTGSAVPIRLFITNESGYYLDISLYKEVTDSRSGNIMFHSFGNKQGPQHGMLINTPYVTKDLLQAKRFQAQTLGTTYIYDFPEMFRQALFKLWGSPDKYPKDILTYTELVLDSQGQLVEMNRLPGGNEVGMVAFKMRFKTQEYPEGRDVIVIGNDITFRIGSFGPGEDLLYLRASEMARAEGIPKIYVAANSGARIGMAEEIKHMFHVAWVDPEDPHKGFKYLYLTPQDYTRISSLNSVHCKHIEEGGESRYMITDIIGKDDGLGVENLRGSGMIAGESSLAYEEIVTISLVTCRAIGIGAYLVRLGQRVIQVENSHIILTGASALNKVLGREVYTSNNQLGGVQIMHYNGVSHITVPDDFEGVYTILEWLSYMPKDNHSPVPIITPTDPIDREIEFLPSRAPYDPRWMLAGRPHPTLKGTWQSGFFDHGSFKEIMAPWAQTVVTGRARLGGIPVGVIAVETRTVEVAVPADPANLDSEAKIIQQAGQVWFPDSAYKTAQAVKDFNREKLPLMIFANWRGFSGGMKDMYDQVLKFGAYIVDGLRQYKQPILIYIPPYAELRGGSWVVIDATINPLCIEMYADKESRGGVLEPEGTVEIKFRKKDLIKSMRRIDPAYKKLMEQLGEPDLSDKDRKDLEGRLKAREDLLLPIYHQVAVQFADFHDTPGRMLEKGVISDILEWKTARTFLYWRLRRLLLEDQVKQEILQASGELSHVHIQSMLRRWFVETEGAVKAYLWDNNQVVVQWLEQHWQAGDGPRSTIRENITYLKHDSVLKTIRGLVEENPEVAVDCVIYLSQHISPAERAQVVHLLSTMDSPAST

First: CC(=O)N[C@@H](C)c1ccc(O[C@@H]2CCN(c3ccnc(N4CCC4)n3)C2)cc1 [Example 8.40]
Second: CC(=O)N[C@@H](C)c1ccc(O[C@@H]2CCN(c3ccnc(N4CCCOCC4)n3)C2)cc1 [Example 8.264]
The IC50 of the first is 2.2-fold higher: 628 nM for the first, 282 nM for the second.

First: CC(=O)N[C@@H](C)c1ccc(O[C@@H]2CCN(c3nc(N(C)CC(F)F)ncc3Cl)C2)cc1 [Example 8.136]
Second: CC(=O)N[C@@H](C)c1ccc(O[C@@H]2CCN(c3nc(N(C)C)ncc3Cl)C2)cc1 [Example 8.51]
The IC50 of the first is 1.8-fold lower: 70 nM for the first, 124 nM for the second.

Compared with `CCN(C)c1nc(N2CC[C@@H](Oc3ccc([C@H](C)NC(C)=O)cc3)C2)ncc1F` [Example 6.12], `CCN(C)c1ccnc(N2CC[C@@H](Oc3ccc([C@H](C)NC(C)=O)cc3)C2)n1` [Example 6.11] is 3.4-fold lower in IC50: 828 nM for the first, 244 nM for the second.

`CC(=O)N[C@@H](C)c1ccc(O[C@@H]2CCN(c3ncnc(N4CC[C@H](C)C4)c3Cl)C2)cc1` [Example 8.310] and `CC(=O)N[C@@H](C)c1ccc(O[C@@H]2CCN(c3nc(N4CCC(C)C4)ncc3F)C2)cc1` (stereo partly shown) [Example 8.70] are within 1.5-fold of each other in IC50: 52 nM for the first, 59 nM for the second.

Going from `CC(=O)N[C@@H](C)c1ccc(O[C@@H]2CCN(c3ncnc(OCC(C)(C)O)c3Cl)C2)cc1` [Example 7.42] to `CCOc1ncnc(N2CC[C@@H](Oc3ccc([C@H](C)NC(C)=O)cc3)C2)c1Cl` [Example 7.22], the IC50 rises from 81 nM to 140 nM (1.7-fold).

`CCNC(=O)N[C@@H](C)c1ccc(O[C@@H]2CCN(c3nc(N4CCOCC4)ncc3F)C2)cc1` [Example 3.20] and `CC(=O)N[C@@H](C)c1ccc(O[C@@H]2CCN(c3nc(N4CCC(CO)C4)ncc3F)C2)cc1` (stereo partly shown) [Example 8.183] are within 1.5-fold of each other in IC50: 576 nM for the first, 807 nM for the second.

First: Cc1oncc1C(=O)N[C@@H](C)c1ccc(OC2CCN(c3ncnc(OCC4CC4)c3F)C2)cc1 (stereo partly shown) [Example 2.22]
Second: C[C@H](NC(=O)c1cnco1)c1ccc(OC2CCN(c3ncnc(OCC4CC4)c3F)C2)cc1 (stereo partly shown) [Example 2.21]
The IC50 of the first is 1.8-fold lower: 48 nM for the first, 87 nM for the second.

Compared with `CCCNc1ncnc(N2CC[C@@H](Oc3ccc([C@H](C)NC(C)=O)cc3)C2)c1Cl` [Example 8.298], `CC(=O)N[C@@H](C)c1ccc(O[C@@H]2CCN(c3ncnc(NCC4CCCO4)c3Cl)C2)cc1` (stereo partly shown) [Example 8.313] is 2-fold higher in IC50: 156 nM for the first, 306 nM for the second.

`CC(=O)N[C@@H](C)c1ccc(O[C@@H]2CCN(c3nc(N(C)CCO)ncc3F)C2)cc1` [Example 8.205] and `CC(=O)N[C@@H](C)c1ccc(O[C@@H]2CCN(c3nc(N(C)CCC#N)ncc3F)C2)cc1` [Example 8.64] are within 1.5-fold of each other in IC50: 607 nM for the first, 745 nM for the second.

First: CC(=O)N[C@@H](C)c1ccc(O[C@@H]2CCN(c3nc(N(C)CC4CCOC4)ncc3Br)C2)cc1 (stereo partly shown) [Example 8.61]
Second: CC(=O)N[C@@H](C)c1ccc(O[C@@H]2CCN(c3nc(N(C)C[C@@H]4CCCO4)ncc3Cl)C2)cc1 [Example 8.258]
The IC50 of the first is 2.3-fold higher: 245 nM for the first, 105 nM for the second.

Going from `CC(=O)N[C@@H](C)c1ccc(O[C@@H]2CCN(c3nc(N4CCC(C)(O)C4)ncc3F)C2)cc1` (stereo partly shown) [Example 8.156] to `CC(=O)N[C@@H](C)c1ccc(O[C@@H]2CCN(c3ccnc(N4CCC(C)(O)C4)n3)C2)cc1` (stereo partly shown) [Example 8.214], the IC50 rises from 153 nM to 865 nM (5.7-fold). The first is the more potent here.

First: CC(=O)N[C@@H](C)c1ccc(O[C@@H]2CCN(c3nc(N4CCCC4C)ncc3Cl)C2)cc1 (stereo partly shown) [Example 8.154]
Second: CC(=O)N[C@@H](C)c1ccc(O[C@@H]2CCN(c3nc(N4CCC[C@H]4C)ncc3F)C2)cc1 [Example 8.283]
The IC50 of the first is 1.8-fold higher: 103 nM for the first, 57 nM for the second.

`CC(=O)N[C@@H](C)c1ccc(O[C@@H]2CCN(c3nc(N4CCc5nocc5C4)ncc3Cl)C2)cc1` [Example 8.175] and `CC(=O)N[C@@H](C)c1ccc(O[C@@H]2CCN(c3ncnc(N4CCc5nocc5C4)c3F)C2)cc1` [Example 8.212] are within 1.5-fold of each other in IC50: 1380 nM for the first, 998 nM for the second.

Going from `CC(=O)N[C@@H](C)c1ccc(O[C@@H]2CCN(c3ccnc(N(C)C4CCOCC4)n3)C2)cc1` [Example 8.195] to `CC(=O)N[C@@H](C)c1ccc(O[C@@H]2CCN(c3ccnc(N4CCC(C)C4)n3)C2)cc1` (stereo partly shown) [Example 8.17], the IC50 falls from 393 nM to 167 nM (2.4-fold).

Going from `CC(=O)N[C@@H](C)c1ccc(O[C@@H]2CCN(c3ncnc(N(C)C4CCCC4)c3F)C2)cc1` [Example 8.125] to `CC(=O)N[C@@H](C)c1ccc(O[C@@H]2CCN(c3ncnc(C4CC4)c3F)C2)cc1` [Example 9.5], the IC50 rises from 90 nM to 1010 nM (11-fold). The first is the more potent here.

First: C[C@H](NC(=O)c1cncs1)c1ccc(O[C@@H]2CCN(c3nccc(N4CCOCC4)n3)C2)cc1 [Example 6.14]
Second: CC(=O)N[C@@H](C)c1ccc(O[C@@H]2CCN(c3ccnc(N4CCSCC4)n3)C2)cc1 [Example 8.91]
The IC50 of the first is 2.8-fold higher: 290 nM for the first, 105 nM for the second.

First: CC(=O)N[C@@H](C)c1ccc(O[C@@H]2CCN(c3ncnc(OCC4CC4)c3Cl)C2)cc1 [Example 7.20]
Second: CC(=O)N[C@@H](C)c1ccc(O[C@@H]2CCN(c3ncnc(OC4CCOCC4)c3F)C2)cc1 [Example 7.37]
The IC50 of the first is 7.1-fold lower: 35 nM for the first, 250 nM for the second. The first is the more potent here.

Compared with `CC(=O)N[C@@H](C)c1ccc(O[C@@H]2CCN(c3ncnc(N4C[C@@H]5C[C@H]4CO5)c3F)C2)cc1` [Example 8.147], `CC(=O)N[C@@H](C)c1ccc(O[C@@H]2CCN(c3ncnc(N4CCOC(C(F)(F)F)C4)c3F)C2)cc1` (stereo partly shown) [Example 8.198] is 4.2-fold lower in IC50: 2320 nM for the first, 549 nM for the second. The second is the more potent here.

Compared with `CC(=O)N[C@@H](C)c1ccc(O[C@@H]2CCN(c3nc(N(C)C(C)C)ncc3F)C2)cc1` [Example 8.63], `C[C@H](NC(=O)c1cncs1)c1ccc(O[C@@H]2CCN(c3nc(N(C)C)ncc3F)C2)cc1` [Example 8.99] is 1.7-fold higher in IC50: 71 nM for the first, 120 nM for the second.

Compared with `CC(=O)N[C@@H](C)c1ccc(O[C@@H]2CCN(c3nc(N4[C@H](C)CCC[C@H]4C)ncc3Cl)C2)cc1` [Example 8.173], `CC(=O)N[C@@H](C)c1ccc(O[C@@H]2CCN(c3ccnc(N4CC(C)(C)C4)n3)C2)cc1` [Example 8.73] is 6.7-fold higher in IC50: 155 nM for the first, 1040 nM for the second.

Going from `C[C@H](NC(=O)C(F)F)c1ccc(OC2CCN(c3ccnc(N(C)CC(F)F)n3)C2)cc1` (stereo partly shown) [Example 5.2] to `CCN(C)c1nccc(N2CCC(Oc3ccc([C@H](C)NC(=O)c4cn[nH]c4)cc3)C2)n1` (stereo partly shown) [Example 2.17], the IC50 rises from 49 nM to 118 nM (2.4-fold). The first is the more potent here.

Compared with `CC(=O)N[C@@H](C)c1ccc(O[C@@H]2CCN(c3ccnc(N4CCC(C#N)C4)n3)C2)cc1` (stereo partly shown) [Example 8.77], `CC(=O)N[C@@H](C)c1ccc(O[C@@H]2CCN(c3ccnc(OCC(C)C)n3)C2)cc1` [Example 7.17] is 2-fold higher in IC50: 489 nM for the first, 960 nM for the second.

`C[C@H](NC(=O)N1CCOCC1)c1ccc(OC2CCN(c3ncnc(OCC4CC4)c3F)C2)cc1` (stereo partly shown) [Example 3.12] and `COC(=O)N[C@@H](C)c1ccc(OC2CCN(c3ncnc(OCC(C)(C)O)c3F)C2)cc1` (stereo partly shown) [Example 4.6] are within 1.5-fold of each other in IC50: 203 nM for the first, 222 nM for the second.

First: C[C@H](NC(=O)N(C)C)c1ccc(OC2CCN(c3ncnc(OCC(C)(C)O)c3F)C2)cc1 (stereo partly shown) [Example 3.15]
Second: C[C@H](NC(=O)N(C)C)c1ccc(O[C@@H]2CCN(c3ncnc(OCC(C)(F)F)c3F)C2)cc1 [Example 3.19]
The IC50 of the first is 1.8-fold higher: 278 nM for the first, 155 nM for the second.

Going from `CCCOc1cc(N2CC[C@@H](Oc3ccc([C@H](C)NC(C)=O)cc3)C2)ncn1` [Example 7.2] to `CC(=O)N[C@@H](C)c1ccc(O[C@@H]2CCN(c3ncnc(N(C)CC(F)F)c3Cl)C2)cc1` [Example 8.115], the IC50 falls from 649 nM to 166 nM (3.9-fold).

`CC(=O)N[C@@H](C)c1ccc(O[C@@H]2CCN(c3ccnc(N(C)CCc4ccccc4)n3)C2)cc1` [Example 8.22] and `CC(=O)N[C@@H](C)c1ccc(O[C@@H]2CCN(c3ncnc(N4CC(C)(O)C4)c3F)C2)cc1` [Example 8.237] are within 1.5-fold of each other in IC50: 986 nM for the first, 749 nM for the second.
